Experimental data: patent US10696707B2, “Polyene macrolide derivative” (Shionogi & Co., Ltd., priority 2014, dated 2020)
pIC50: −log10 of the molar value. Converted amounts (≈) assume the structure as drawn. Where two headings read alike, the source gives them in different places.

Experiments:
A. fumigatus ATCC204305 = experiment: Antifungal activity test, MIC by broth microdilution (CLSI M38-A2); type: cell-based
Method in brief: (§1)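 CLSI broth microdilution in RPMI 1640 with 2% glucose, 0.165 mol/L MOPS, pH 7.0; two-fold DMSO dilutions. MIC = lowest concentration giving 100% inhibition versus growth control.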

A. flavus ATCC204304 = experiment: as above; type: cell-based
Method in brief: as §1

[1] = test system: red blood cells (5% RBC suspension); experiment: Test Example 2-2: in vitro hemolytic activity test (upper limit 200 μmol/L); type: cell-based; details: read-out: hemolysis IC50
Protocol: Nephrotoxic potentials of the compounds of the present invention whose X is —N(R^F)—CO—X^1 and X^1 is the group represented by formula (III) and T is —N(R^a5)— were investigated by in vitro hemolytic activity test under the condition that the upper limit was 200 μmol/L as the required concentration to 50% of hemolysis (IC50).
Defibrinated sterile blood was centrifuged at 700×g for 3 minutes and, and the supernatant was removed for 100% of red blood cells. After the cleaning with physiological saline, the washed blood cells was suspended in the medium (Earle's balanced salt sodium, bicarbonate, 0.1 g/L L-glutamine without phenol red), and was diluted by 5% (5% RBC suspension).
The washed blood was diluted by 5% in water for injection (solution of complete hemolysis), and was used as the indication of optical density for complete hemolysis.
The compounds of the present invention solution in DMSO (several and doubling dilutions starting from 10 mmol/L), DMSO as the negative control, and Amphotericin B as the positive control were used, and each 5 μL of these was added in to a well of V-form 96 well type microplate. Finally, the maximum concentration of the compounds of the present invention solution in DMSO was 200 μmol/L by adding 245 μL of the medium or 5% RBC suspension into the well.
Two hundred fifty μL of the solution of complete hemolysis was added into another well and the microplate was incubated at 37° C. in 5% of CO2 concentration for an hour.
After the incubation, each 100 μL of supernatants in wells was collected by centrifugation of the microplate at 300×g for 5 minutes and was located on a well of flat-form 96 well type microplate. An absorbance of each supernatant was measured at wavelength of 540 nm.
Percent hemolysis was calculated by using the followed equation. The required concentration to 50% of hemolysis (IC50) was calculated based on the percent hemolysis. […] Hemolysis (%)=(CR−VM)×100÷(VL−VR) Where:
CR: Absorbance of 5% RBC suspension incubated with the compounds of the present invention solution in DMSO
VM: Absorbance of medium incubated with the compounds of the present invention solution in DMSO
VL: Absorbance of solution of complete hemolysis
VR: Absorbance of 5% RBC suspension incubated with DMSO
The “>200” in the table means above IC50 value exceeded the upper concentration 200 μmol/L.

C. albicans ATCC90028 = experiment: Antifungal activity test, MIC by broth microdilution (CLSI M27-A3); type: cell-based
Method in brief: as §1

[2] = Test Example 4: nephrotoxicity, kidney marker gene expression by quantitative RT-PCR after intravenous administration; type: in vivo; details: mouse, kidney, mice, nephrotoxicity positive when ΔΔCt of two-third of target genes (Kim1, Timp1, Lcn2) >3
Protocol: The expression level of marker genes for nephrotoxicity was determined by quantitative RT-PCR to evaluate nephrotoxicity of the compound of the present invention. The compound of the present invention or vehicle was intravenously administered to mice and their kidneys were isolated. After removal of the kidney capsule, all of the kidneys were sliced into two equal halves, and stored at −80° C. in RNAlater® (Ambion) until use. Samples were disrupted and homogenized in QIAzol Lysis Reagent with TissueLyser (Qiagen), and total RNA was extracted using an RNeasy® Mini kit (Qiagen). Total RNA concentrations were determined to read OD260 by absorptiometer.
The level of expression of the following target genes was determined using one-step quantitative real-time PCR: Kim1, Timp1, and Lcn2. Total RNA (80 ng/2 μL) was used as the template, and TaqMan Gene Expression Assays (Applied Biosystems, for Haver1 (Kim1), assay ID: Mm00506686_m1; Timp1, Mm01341361_m1; Lcn2, Mm01324470_m1) or TaqMan Endogenous Controls (Gapdh, predesigned assay reagent supplied by ABI, Applied Biosystems) were employed as gene-specific probe and primer sets. Quantitative RT-PCR was performed using a QuantiTect™ Probe RT-PCR kit (Qiagen), and transcript levels were quantitated with an Applied Biosystems 7900HT Fast Real Time PCR System (Applied Biosystems). Reverse transcription and amplification conditions were set as follows: 50° C. for 30 min, 95° C. for 15 min, followed by 40 cycles at 95° C. for 15 s and 60° C. for 1 min. The resulting cycle threshold (Ct) value was processed based on the comparative Ct method (ΔΔCt Method), where Gapdh was used as an endogenous reference gene to normalize the expression level of target genes.
The ΔCt was calculated as follows: Ct, Gapdh−Ct, target gene.
The ΔΔCt was calculated as follows: ΔCt, treated sample−ΔCt, average of vehicle control sample.
Higher ΔΔCt values indicate higher expression rates of the target gene and therefore high risk for nephrotoxicity.

[3] = test system: red blood cells (5% RBC suspension); experiment: Test Example 2-1: in vitro hemolytic activity test (upper limit 50, 80, 100 or 200 μmol/L); type: cell-based; details: Erythrocyte, 1 h, read-out: hemolysis IC50
Method in brief: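 A 5% suspension of washed red cells in Earle's medium was exposed to doubling dilutions of compound from DMSO, with maxima of 50, 80, 100 or 200 μmol/L final, for 1 h at 37 °C, 5% CO2. Supernatant absorbance at 540 nm was normalised to water-lysed cells. IC50 is the concentration giving 50% hemolysis; ">" values exceed the top concentration.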

[4] = A. fumigatus ATCC204305, broth microdilution, 35° C., 24-48 hours, 100% inhibition
[5] = A. flavus ATCC204304, broth microdilution, 35° C., 24-48 hours, 100% inhibition
[6] = Test Example 2-2, hemolysis method 200 (upper concentration 200 μmol/L), 5% RBC suspension, 37° C., one hour
[7] = C. albicans ATCC90028, broth microdilution, 35° C., 24-48 hours, 100% inhibition
[8] = Aspergillus fumigatus, A. fumigatus ATCC204305, broth microdilution, 35° C., 24-48 hours, 100% inhibition, read-out: MIC
[9] = Aspergillus flavus, A. flavus ATCC204304, broth microdilution, 35° C., 24-48 hours, 100% inhibition, read-out: MIC
[10] = Erythrocyte, 1 h, Test Example 2-2, hemolysis method 200 (upper concentration 200 μmol/L), 5% RBC suspension, 37° C., one hour
[11] = Candida albicans, C. albicans ATCC90028, broth microdilution, 35° C., 24-48 hours, 100% inhibition, read-out: MIC

## C[C@@H]1[C@H](O)[C@@H](C)/C=C/C=C/C=C/C=C/C=C/C=C/C=C/[C@H](O[C@@H]2O[C@H](C)[C@@H](O)[C@H](N)[C@@H]2O)C[C@@H]2O[C@](O)(C[C@@H](O)C[C@@H](O)[C@H](O)CC[C@@H](O)C[C@@H](O)CC(=O)O[C@H]1C)C[C@H](O)[C@H]2NC(=O)NNC(=O)c1cccnc1 [I-45]
A. fumigatus ATCC204305; [4]
  MIC: 1 µg/mL (≈ 0.945 µM)
A. flavus ATCC204304; [5]
  MIC: 0.5 µg/mL (≈ 0.472 µM)
[1]; [6]
  pIC50: < 3.70
C. albicans ATCC90028; [7]
  MIC: 0.25 µg/mL (≈ 0.236 µM)

## C[C@@H]1[C@H](O)[C@@H](C)/C=C/C=C/C=C/C=C/C=C/C=C/C=C/[C@H](O[C@@H]2O[C@H](C)[C@@H](O)[C@H](N)[C@@H]2O)C[C@@H]2O[C@](O)(C[C@@H](O)C[C@@H](O)[C@H](O)CC[C@@H](O)C[C@@H](O)CC(=O)O[C@H]1C)C[C@H](O)[C@H]2NC(=O)NNC(N)=O [I-60]
A. fumigatus ATCC204305; Aspergillus fumigatus, ATCC204305
  MIC: 0.5 µg/mL (≈ 0.502 µM)
A. flavus ATCC204304; Aspergillus flavus, ATCC204304
  MIC: 0.5 µg/mL (≈ 0.502 µM)
[1]; Erythrocyte, 1 h
  pIC50: < 3.70
C. albicans ATCC90028; Candida albicans, ATCC90028
  MIC: 0.125 µg/mL (≈ 0.125 µM)

## C[C@@H]1[C@H](O)[C@@H](C)/C=C/C=C/C=C/C=C/C=C/C=C/C=C/[C@H](O[C@@H]2O[C@H](C)[C@@H](O)[C@H](N)[C@@H]2O)C[C@@H]2O[C@](O)(C[C@@H](O)C[C@@H](O)[C@H](O)CC[C@@H](O)C[C@@H](O)CC(=O)O[C@H]1C)C[C@H](O)[C@H]2NC(=O)NNC(=O)NO [I-218]
A. fumigatus ATCC204305; [4]
  MIC: 1 µg/mL (≈ 0.988 µM)
A. flavus ATCC204304; [5]
  MIC: 0.5 µg/mL (≈ 0.494 µM)
[1]; [6]
  pIC50: < 3.70
C. albicans ATCC90028; [7]
  MIC: 0.25 µg/mL (≈ 0.247 µM)

## C[C@@H]1[C@H](O)[C@@H](C)/C=C/C=C/C=C/C=C/C=C/C=C/C=C/[C@H](O[C@@H]2O[C@H](C)[C@@H](O)[C@H](N)[C@@H]2O)C[C@@H]2O[C@](O)(C[C@@H](O)C[C@@H](O)[C@H](O)CC[C@@H](O)C[C@@H](O)CC(=O)O[C@H]1C)C[C@H](O)[C@H]2NC(=O)NO [I-219]
[2]
  MTD: 16 mg/kg

## C[C@@H]1[C@H](O)[C@@H](C)/C=C/C=C/C=C/C=C/C=C/C=C/C=C/[C@H](O[C@@H]2O[C@H](C)[C@@H](O)[C@H](N)[C@@H]2O)C[C@@H]2O[C@](O)(C[C@@H](O)C[C@@H](O)[C@H](O)CC[C@@H](O)C[C@@H](O)CC(=O)O[C@H]1C)C[C@H](O)[C@H]2NC(=O)NNC(=O)C[C@H](O)CO [I-237]
A. fumigatus ATCC204305; [4]
  MIC: 1 µg/mL (≈ 0.948 µM)
A. flavus ATCC204304; [5]
  MIC: 0.5 µg/mL (≈ 0.474 µM)
[1]; [6]
  pIC50: < 3.70
C. albicans ATCC90028; [7]
  MIC: 0.5 µg/mL (≈ 0.474 µM)

## C[C@@H]1[C@H](O)[C@@H](C)/C=C/C=C/C=C/C=C/C=C/C=C/C=C/[C@H](O[C@@H]2O[C@H](C)[C@@H](O)[C@H](N)[C@@H]2O)C[C@@H]2O[C@](O)(C[C@@H](O)C[C@@H](O)[C@H](O)CC[C@@H](O)C[C@@H](O)CC(=O)O[C@H]1C)C[C@H](O)[C@H]2NC(=O)NNC(=O)C(CO)CO [I-240]
A. fumigatus ATCC204305; [4]
  MIC: 1 µg/mL (≈ 0.948 µM)
A. flavus ATCC204304; [5]
  MIC: 0.5 µg/mL (≈ 0.474 µM)
[1]; [6]
  pIC50: < 3.70
C. albicans ATCC90028; [7]
  MIC: 0.5 µg/mL (≈ 0.474 µM)

## C[C@@H]1[C@H](O)[C@@H](C)/C=C/C=C/C=C/C=C/C=C/C=C/C=C/[C@H](O[C@@H]2O[C@H](C)[C@@H](O)[C@H](N)[C@@H]2O)C[C@@H]2O[C@](O)(C[C@@H](O)C[C@@H](O)[C@H](O)CC[C@@H](O)C[C@@H](O)CC(=O)O[C@H]1C)C[C@H](O)[C@H]2NC(=O)NNC(=O)CCC(=O)O [I-261]
A. fumigatus ATCC204305; [4]
  MIC: 1 µg/mL (≈ 0.949 µM)
A. flavus ATCC204304; [5]
  MIC: 0.5 µg/mL (≈ 0.475 µM)
[1]; [6]
  pIC50: < 3.70
C. albicans ATCC90028; [7]
  MIC: 0.5 µg/mL (≈ 0.475 µM)

## C[C@@H]1[C@H](O)[C@@H](C)/C=C/C=C/C=C/C=C/C=C/C=C/C=C/[C@H](O[C@@H]2O[C@H](C)[C@@H](O)[C@H](N)[C@@H]2O)C[C@@H]2O[C@](O)(C[C@@H](O)C[C@@H](O)[C@H](O)CC[C@@H](O)C[C@@H](O)CC(=O)O[C@H]1C)C[C@H](O)[C@H]2NC(=O)NNC(CO)CO [I-272]
A. fumigatus ATCC204305; [8]
  MIC: 0.5 µg/mL (≈ 0.487 µM)
A. flavus ATCC204304; [9]
  MIC: 0.5 µg/mL (≈ 0.487 µM)
[1]; [10]
  pIC50: < 3.70
C. albicans ATCC90028; [11]
  MIC: 0.25 µg/mL (≈ 0.243 µM)

## C[C@@H]1[C@H](O)[C@@H](C)/C=C/C=C/C=C/C=C/C=C/C=C/C=C/[C@H](O[C@@H]2O[C@H](C)[C@@H](O)[C@H](N)[C@@H]2O)C[C@@H]2O[C@](O)(C[C@@H](O)C[C@@H](O)[C@H](O)CC[C@@H](O)C[C@@H](O)CC(=O)O[C@H]1C)C[C@H](O)[C@H]2NC(=O)NNC[C@@H](O)C(=O)O [I-310]
A. fumigatus ATCC204305; [8]
  MIC: 1 µg/mL (≈ 0.96 µM)
A. flavus ATCC204304; [9]
  MIC: 0.5 µg/mL (≈ 0.48 µM)
[1]; [10]
  pIC50: < 3.70
C. albicans ATCC90028; [11]
  MIC: 0.5 µg/mL (≈ 0.48 µM)

## C[C@@H]1[C@H](O)[C@@H](C)/C=C/C=C/C=C/C=C/C=C/C=C/C=C/[C@H](O[C@@H]2O[C@H](C)[C@@H](O)[C@H](NC(=N)N)[C@@H]2O)C[C@@H]2O[C@](O)(C[C@@H](O)C[C@@H](O)[C@H](O)CC[C@@H](O)C[C@@H](O)CC(=O)O[C@H]1C)C[C@H](O)[C@H]2CO [I-394]
[2]
  MTD: > 24 mg/kg

## C[C@@H]1[C@H](O)[C@@H](C)/C=C/C=C/C=C/C=C/C=C/C=C/C=C/[C@H](O[C@@H]2O[C@H](C)[C@@H](O)[C@H](N)[C@@H]2O)C[C@@H]2O[C@](O)(C[C@@H](O)C[C@@H](O)[C@H](O)CC[C@@H](O)C[C@@H](O)CC(=O)O[C@H]1C)C[C@H](O)[C@H]2C(=O)NC(CO[C@H]1O[C@H](CO)[C@@H](O)[C@H](O)[C@@H]1O)CO[C@H]1O[C@H](CO)[C@@H](O)[C@H](O)[C@@H]1O [I-396]
[2]
  MTD: 16 mg/kg
[3]
  pIC50: < 4.00
